Data on 15 molecules can be found in patent publication US5688654A, “GABA a receptor subtypes and methods for screening drug compounds using imidazoquinoxalines and pyrrolopyrimidines to bind to GABAa receptor subtypes” (Neurogen Corporation, priority 1994, dated 1997).

A word on the Ki: it is the dissociation constant of the complex between target and ligand, obtained from inhibition or displacement.

Assay [1] addresses GABAa receptor subtype. The assay can be described thus: Drug screening assay: displacement of 3H-Compound 1 from rat cortical tissue (novel GABAa receptor subtype). It is filed as binding. The following applies: Table I; 0.5 nM 3H-Compound 1, rat cortical tissue, 20 min at 4° C., buffer with 1 uM Ro 15-1788 and 10 uM muscimol; Ki by Cheng Prusoff. The method, then:
The methods for screening drug compounds of the invention using the novel GABAa receptor are illustrated by the following assays for GABAa receptor subtype activity.
Assays were carried out using the tissue preparation described in Thomas and Tallman (J. Bio. Chem. 156: 9838-9842, 1983, J. Neurosci 3: 433-440, 1983). Rat cortical tissue was dissected and homogenized in 25 volumes (w/v) of 0.05M Tris HCl buffer (pH 7.4 at 4° C.). The tissue homogenate was centrifuged in the cold (4°) at 20,000×g for 20'. The supernatant was decanted and the pellet was rehomogenized in the same volume of buffer and again centrifuged at 20,000×g. The supernatant was decanted and the pellet was frozen at -20° C. overnight. The pellet was then thawed and rehomogenized in 25 volume (original wt/vol) of buffer and the procedure was carried out twice. The pellet was finally resuspended in 50 volumes (w/vol of 0.05M Tris HCl buffer containing 1 uM Ro 15-1788. 1 uM sodium ascorbate and 10 uM muscimol (pH 7.4 at 4° C.).
Incubation mixtures contained 400 μl of tissue homogenate. 5μl of 100 nM ligand in above buffer [final ligand concentration was 0.5 nM ^3 H-Compound 1 (specific activity 67 Ci/mmol)], drug or blocker and buffer to a total volume of 1 ml. Incubations were carried for 20 min at 4° C. then were rapidly filtered through GFB filters to separate free and bound ligand. Filters were washed twice with fresh 0.05M Tris HCl buffer (pH 7.4 at 4° C.) and counted in a liquid scintillation counter. 10 μM Compound 3 was added to some tubes to determine nonspecific binding. Data were collected in triplicate determinations, averaged and % inhibition of total specific binding was calculated. Total Specific Binding=Total-Nonspecific. Typically the specific binding represented about 75 to 85% of total binding. In some cases, the amounts of unlabeled drugs was varied and total displacement curves of binding were carried out. Data were convened to a form suitable for the calculation of IC50 and Hill Coefficient (nH). These IC 50's were convened to Ki's using the Cheng Prusoff equation (Cheng and Prussoff, 1973, Biochem. Pharmacol. 22: 3099.).
In general terms: Loss of bound radioactivity is the signal in a displacement assay; it reports binding, not function.

The target of assay [2] is known GABAa receptors. The following applies: Table II, no method given; cited from earlier work.
Assay [3] relates to benzodiazepine binding site. Particulars: Tallman et al., 1978; cited from earlier work.

As to `CC(C)(C)OC(=O)c1ncn2c1[C@@H]1CCCN1C(=O)c1c(Br)cccc1-2` [Bretazenil], the Ki in assay [1] is 15000 nM; in assay [2], 1 nM. Turning to `NCCCC(=O)O` [GABA, γ-Aminobutyric acid], the “effect on benzodiazepine binding / on its enhancement by GABA agonists (in words)” value in assay [3] is reported as “enhance the binding of benzodiazepines”. Turning to `CN1CCc2cc3c(cc2C1C1OC(=O)c2c1ccc1c2OCO1)OCO3` (single isomer, unassigned; (-)) [(-) bicuculline], the “effect on benzodiazepine binding / on its enhancement by GABA agonists (in words)” value in assay [3] is “much less active”. Turning to `CN1C(=O)CN=C(c2ccccc2)c2cc(Cl)ccc21` [Diazepam], the Ki in assay [1] is 5000 nM; in assay [2], 6 nM.

Regarding `CCCOc1ccc(-n2c(=O)c3c[nH]c4ccccc4n-3c2=O)cc1` [Compound 3, 2-(4-Propyloxyphenyl)imidazo[1,5,a]quinoxaline-1,3(2H,5H)-dione], the inhibition constant (Ki) in assay [1] came out at 0.9 nM. On the same count and under the same terms, with `COc1cccc(-n2c(=O)c3c[nH]c4ccccc4n-3c2=O)c1` [Compound 6, 2-(3-Methoxyphenyl)imidazo[1,5.a]quinoxaline-1,3(2H,5. H)-dione] the figure was 0.55 nM. On to `CN1CCc2cc3c(cc2C1C1OC(=O)c2c1ccc1c2OCO1)OCO3` (single isomer, unassigned; (+)) [(+) bicuculline], for which, in assay [3], the “effect on benzodiazepine binding / on its enhancement by GABA agonists (in words)” value was “blocked”.

`COc1cccc(-c2ncc3[nH]c4c(c3n2)CCCC4)c1` [Compound 7, 2-(3-Methoxyphenyl)-6,7,8,9-tetrahydro-5H-indolo[3.2-d]-pyrimidine] came in with a Ki in assay [1] of 50 nM. As for `CCOC(=O)c1ncn2c1CN(C)C(=O)c1cc(F)ccc1-2` [Flumazenil], the inhibitory constant (Ki) in assay [1] was 7500 nM; in assay [2], 1 nM. The molecule `CCOc1ccc(-n2c(=O)c3cn(C)c4ccccc4n-3c2=O)cc1` [Compound 5, 2-(4-Ethoxyphenyl)-5-methyl-imidazo[1,5,a]quinoxaline-1,3(2H,5H)-dione] showed a Ki in assay [1] of 6 nM.

In assay [1], `CCOc1ccc(-n2c(=O)c3c[nH]c4ccccc4n-3c2=O)cc1` [Compound 1, 2-(4-Ethoxyphenyl)imidazo[1,5.a]quinoxaline-1,3(2H,5H)-dione] showed an inhibition constant (Ki) of 0.5 nM. Still for that read-out and setting: the value for `CCOc1ccc(-n2c(=O)c3c[nH]c4cc(C)ccc4n-3c2=O)cc1` [Compound 4, 2-(4-Ethoxyphenyl)-7-methyl-imidazo[1,5,a]quinoxaline-1,3(2H,5H)-dione] was 0.5 nM. As for `Cc1ccc(-c2nc3ccc(C)cn3c2CC(=O)N(C)C)cc1` [Zolpidem], the results for the inhibition constant Ki in assay [1] and in assay [2] were 2200 nM and 20 nM, respectively. In the case of `Cc1nnc2n1-c1ccc(Cl)cc1C(c1ccccc1)=NC2` [Alprazelam], in assay [1], the Ki turned out to be 8000 nM. On the same count and under the same terms, with `COc1ccc(F)c(-c2ncc3[nH]c4c(c3n2)CCCC4)c1` [Compound 2, 2-(2-Fluoro-5-methoxyphenyl)-6,7,g,9-tetrahydro-5H-indolo[3,2-d]-pyrimidine] the figure was 3.9 nM.
